In ChEMBL document CHEMBL3639215, “Piperazine compound having a PGDS inhibitory effect” (2014) one finds IC50 data, which are given here for 16 compounds.

For this assay, the target named is Hematopoietic prostaglandin D synthase (Homo sapiens, UniProt O60760). Description: Inhibiting Action: The test was carried out according to the method of Urade, Y. et al. (J. Biol. Chem., 262, 3820-3825, (1987)). More specifically, the reaction mixture (49 μL) containing 100 mM Tris-HCl (pH 8.0), 1 mM reduced glutathione, 0.1 mg/mL γ-globulin, and human H-PGDS (q.s.), and a compound (final concentration: 0.01-100 μM) was preincubated at 25C. for 5 minutes. A DMSO solution (final concentration: 1%) was added to the solvent control group. Subsequently, 1 μL of [14C] prostaglandin H2 (final concentration: 10 μM) was added to start the reaction. One minute after the start of the reaction, 250 μL of a reaction stop solution (diethylether/methanol/1 M citric acid (30/4/1) at a temperature of −20C. was added to stop the reaction. After the reaction was stopped, 50 μL of the upper-layer portion (organic solvent layer) was applied to a TLC plate and developed at −20C. for 45 minutes (developing solvent: diethylether/methanol/acetic acid (90/2/1)).
Sequence of Hematopoietic prostaglandin D synthase (O60760 whole entry): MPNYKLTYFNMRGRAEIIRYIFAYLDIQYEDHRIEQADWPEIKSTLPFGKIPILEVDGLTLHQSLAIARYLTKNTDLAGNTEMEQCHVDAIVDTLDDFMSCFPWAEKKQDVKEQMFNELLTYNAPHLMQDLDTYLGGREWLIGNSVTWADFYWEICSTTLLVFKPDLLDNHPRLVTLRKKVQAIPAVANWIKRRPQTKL
`Cc1cc(C)c(C(=O)N2CCN(C(=O)NC3CCN(c4ccc(C(=O)NCCN5CCOCC5)cc4)CC3)CC2)[nH]1`: the half-inhibitory concentration (IC50) is > 1000 nM.
The same measure for `O=C(NCCN1CCOCC1)c1ccc(N2CCC(NC(=O)N3CCN(C(=O)c4cccs4)CC3)CC2)cc1`: 201 nM; for `Cn1ccc(C(=O)N2CCN(C(=O)NC3CCN(c4ccc(C(=O)NCCN5CCOCC5)cc4)CC3)CC2)c1`: > 1000 nM; for `O=C(NCCN1CCOCC1)c1ccc(N2CCC(NC(=O)N3CCN(C(=O)c4ccccc4)CC3)CC2)cc1`: 249 nM.
The same measure for `O=C(Nc1nc2ccc(Br)cc2s1)N1CCN(C(=O)c2cccc(F)c2)CC1`: 106 nM.
The same measure for `Cc1cc2nc(NC(=O)N3CCN(C(=O)c4cccc(F)c4)CC3)sc2cc1C`: 222 nM.
In the case of `O=C(NCCN1CCOCC1)c1ccc(N2CCC(NC(=O)N3CCN(C(=O)c4ccco4)CC3)CC2)cc1`, the IC50 was 445 nM.
To `O=C(NCCN1CCOCC1)c1ccc(N2CCC(NC(=O)N3CCN(C(=O)c4ccoc4)CC3)CC2)cc1` belongs > 1000 nM.
To `COc1ccc2nc(NC(=O)N3CCN(C(=O)c4cccc(F)c4)CC3)sc2c1` belongs 318 nM; to `O=C(NCCN1CCOCC1)c1ccc(N2CCC(NC(=O)N3CCN(C(=O)c4ccc[nH]4)CC3)CC2)cc1`, 334 nM; to `Cn1ccnc1C(=O)N1CCN(C(=O)NC2CCN(c3ccc(C(=O)NCCN4CCOCC4)cc3)CC2)CC1`, > 1000 nM.
To `O=C(NCCN1CCOCC1)c1ccc(N2CCC(NC(=O)N3CCN(C(=O)C4CCCC4)CC3)CC2)cc1` belongs > 1000 nM; to `Cc1ccc2nc(NC(=O)N3CCN(C(=O)c4cccc(F)c4)CC3)sc2c1`, 260 nM; to `O=C(Nc1nc2ccc(Cl)cc2s1)N1CCN(C(=O)c2cccc(F)c2)CC1`, 204 nM.
In the case of `O=C(NCCN1CCOCC1)c1ccc(N2CCC(NC(=O)N3CCN(C(=O)c4ccsc4)CC3)CC2)cc1`, the IC50 was determined as 327 nM.
To `O=C(NCCN1CCOCC1)c1ccc(N2CCC(NC(=O)N3CCN(C(=O)c4ccno4)CC3)CC2)cc1` belongs > 1000 nM.

The term IC50 denotes the concentration at which inhibition is half-maximal.
